According to patent US11007169B2, “Cis-gnetin H and trans-gnetin H as therapeutic agents” (MIDDLE TENNESSEE STATE UNIVERSITY, priority 2014, dated 2021):

Columns and labels:
Format in all cases: cell-based, human
[1] = test system: mitochondrial cytochrome c in A549 cells; assay: Analysis of cytochrome c by flow cytometry, A549; conditions: 100 μM, 24 hours
Procedure: (§1) A549 and BT20 cells were seeded in a 96-well plate (BD Falcon) at a density of 8000 cells/well and treated with 100 μM of cis- or trans-gnetin H for 24 hours. The expression of cytochrome c was evaluated using the FlowCellect Cytochrome c Kit (Millipore) according to the manufacturer's instructions. Cells were stained with either Anti-IgG1-FITC Isotype control or Anti-Cytochrome c-FITC, and data was acquired and analyzed using the Guava Flow Cytometer (Millipore).

[2] = test system: mitochondrial cytochrome c in BT20 cells; assay: Analysis of cytochrome c by flow cytometry, BT20; conditions: 100 μM, 24 hours
Procedure: as §1

[3] = test system: caspase 3/7 in A549 cells; assay: Caspase 3/7 activation assay (Caspase-Glo 3/7); conditions: 100 μM
Procedure: Caspase 3/7 activity was analyzed using an in-situ luminescent marker. A549 and BT20 cells were seeded in a white 96-well plate (Greiner) at a density of 8000 cells/well, and treated with 100 μM cis- or trans-gnetin H for 24 hours. Caspase activity was then determined using the Caspase-Glo 3/7 Assay (Promega) according to the manufacturer's instructions. The luminescence of each sample was measured using a SpectraMax M2e Microplate Reader (Molecular Devices Inc.).

A549 cells = assay: Cell cycle analysis by flow cytometry, A549; conditions: 100 μM, 24 hours
Procedure: A549 and BT20 cells were first synchronized in the G0 phase by culturing cells for 24 hours in serum-free medium and then treated with 100 μM cis- or trans-gnetin H for 24 hours, respectively. Cell cycle analysis was done using propidium iodide (PI) staining as described (An et al., Mol. Cancer Ther. 2007; 6:61-9) and the cells were analyzed on a Guava Flow Cytometer with InCyte software (Millipore).

[4] = test system: NF-κB nuclear translocation in A549 cells; assay: Inhibition of TNF-α activated NF-κB translocation, Arrayscan VTI HCS Reader; conditions: 100 μM for 2 hrs, then 10 ng/ml TNF-α
Procedure: A549 cells were seeded in 96 well plates (BD Falcon) at a density of 4000 cells/well, and were treated with 100 μM cis- or trans-gnetin H for 2 hrs, followed by treatment of 10 ng/ml tumor necrosis factor-alpha (TNF-α) (Sigma). Untreated cells and cells treated with only 10 ng/ml TNF-α served as controls. Cells were fixed, permeabilized, and stained with Nuclear factor kappa B (NF-κB) primary antibody, Dylight 488 conjugated secondary antibody, and Hoechst 33342 dye, sequentially. The Hoechst and DyLight fluorophores respectively detect changes in nuclear morphology (blue fluorescence) and NF-κB distribution (green fluorescence). Images were acquired at different channels using suitable filters with a 20× objective and analyzed on the Arrayscan VTI HCS Reader (Thermo Scientific). The Nuclear Translocation BioApplication software (Thermo Scientific) was used for image acquisition and analysis. For each well, at least 400 cells were automatically acquired and analyzed. The translocation index was calculated by measuring the average intensity difference of NF-κB between the identified cytoplasmic region and nuclear region (MEAN_CircRingAvgIntenDiffCh2). Experiments were performed in triplicates.

[5] = test system: PMA-differentiated THP-1 macrophages; assay: Cell viability Alamar Blue assay, PMA-differentiated THP-1; conditions: for viability of PMA-differentiated THP-1 cells: 3, 6, 13, 25, 50, 100 μM, 24 h treatment
Procedure: (§2) THP-1 cells were maintained in RPMI 1640 medium supplemented with 10% complement-inactivated FBS and 1% penicillin/streptomycin (complete culture medium) at 37° C. with 5% CO2 supplemented. Cell concentrations were adjusted to desired concentrations for each experiment by centrifugation at 500×g for 5 min and resuspended in complete culture medium with 100 nM of PMA. Cell concentration was adjusted to 5×10^5 cells/ml for all assays and 2.5×10^5 cells/ml were used for NF-κB nuclear translocation assay. Cells were seeded onto 96-, 24-, or 12-well plates and incubated for 48 to 72 h to allow for differentiation. Cells were washed with serum-free RPMI 1640 medium before each experiment to remove the undifferentiated cells.
Differentiated THP-1 cells were treated with various concentrations of cis- and trans-gnetin H and 1 μM of dexamethasone for 24 h. Following treatment, the cell supernatants were replaced with culture medium containing 1× Alamar Blue reagent and incubated for an additional 20-24 h. Cell viability was assessed by measuring Relative Fluorescent Units (RFU) on the SpectraMax M2e microplate reader (Molecular Devices Inc., Sunnyvale, Calif., USA) at Ex 560 nm and Em 590 nm. The results were expressed as a percentage, relative to untreated control cells (FIG. 9). Untreated and LPS-treated cells were tested for the effect of DMSO as vehicle control.
(§3) Differentiated THP-1 cells were pretreated with various concentrations of cis-gnetin H, trans-gnetin H, or 1 μM of dexamethasone for 1 h and stimulated with 20 ng/ml of LPS for 4 h. Dexamethasone is a synthetic glucocorticoid that suppresses cytokine response and was used as a positive control (Abraham et al., 2006, J. Exp. Med., 203:1883-9; Steer et al., J. Biol. Chem., 2000, 275(24):18432-40). Supernatants were collected for human cytokine ELISAs and the manufacturer's protocol was followed to assess the cytokine response. Cells remaining after the supernatant collection were tested for relative viability by Alamar Blue cytotoxicity assay as described earlier.

[6] = test system: TNF-α in LPS-stimulated THP-1 cells; assay: Cytokine response by ELISA, TNF-α; conditions: for IC50: Homo sapiens, THP-1, pretreated 1 h, LPS 4 h, ELISA; for inhibition of TNF-α: cis 12.5-50 μM, trans 8-30 μM, 20 ng/ml LPS, p<0.05
Procedure: as §2, §3

## Oc1ccc(/C=C\c2c3c(cc4c2[C@H](c2cc(O)cc(O)c2)[C@@H](c2ccc(O)cc2)O4)O[C@H](c2ccc(O)cc2)[C@H]3c2cc(O)cc(O)c2)cc1 [cis-gnetin H]
[1]
  cytochrome c release in A549: release of mitochondrial cytochrome c
[2]
  cytochrome c release in BT20: release of mitochondrial cytochrome c
[3]
  activities of caspase 3/7 compared with untreated A549 cells: 3.65 fold
A549 cells
  G0-G1 subpopulation, A549: increased significantly
  M and G2-S subpopulation, A549: significant decrease
[4]
  TNF-α-induced NF-κB nuclear translocation: significant inhibition
[5]
  viability of PMA-differentiated THP-1 cells: Neither cis- nor trans-gnetin H affected the viability of the cells
[5]; pretreatment 12.5, 25, 50 μM and LPS
  cell viability with LPS: no effect on cell viability
[6]
  IC50: 19 µM
  inhibition of TNF-α: significant inhibition

## Oc1ccc(/C=C/c2c3c(cc4c2[C@H](c2cc(O)cc(O)c2)[C@@H](c2ccc(O)cc2)O4)O[C@H](c2ccc(O)cc2)[C@H]3c2cc(O)cc(O)c2)cc1 [trans-gnetin H]
[1]
  cytochrome c release in A549: release of mitochondrial cytochrome c
[2]
  cytochrome c release in BT20: release of mitochondrial cytochrome c
[3]
  activities of caspase 3/7 compared with untreated A549 cells: 2.7 fold
A549 cells
  G0-G1 subpopulation, A549: increased significantly
  M and G2-S subpopulation, A549: significant decrease
[4]
  TNF-α-induced NF-κB nuclear translocation: significant inhibition
[5]
  viability of PMA-differentiated THP-1 cells: Neither cis- nor trans-gnetin H affected the viability of the cells
[5]; pretreated at 50 μM and LPS
  cell viability with LPS relative to untreated control: decreased viability
[6]
  IC50: 6 µM
  inhibition of TNF-α: significant inhibition
